Test results taken from patent US9447039B2, “Indole carboxamide derivatives and uses thereof” (priority 2012, dated 2016).
Converted amounts (≈) assume the structure as drawn.

Test system: Mycobacterium tuberculosis H37Rv (ATCC #27294)
Test: Minimum Inhibitory Concentration (MIC50) determination
Assay type: cell-based
Details: 120 h
Method: Mycobacterium tuberculosis H37Rv (ATCC #27294) (Mtb) strain was maintained in Middlebrook 7H9 broth medium supplemented with 0.05% Tween 80 and 10% ADS supplement. ADS supplement contains 5% bovine serum albumin fraction V. 2% D-dextrose and 0.8% of sodium chloride. Middlebrook 7H11 agar medium supplemented with 10% OADC (oleic acid, albumin, dextrose and catalase) was used as solid media for growing Mtb. Stock solutions of the compounds were prepared using 90% DMSO.
Minimum Inhibitory Concentration (MIC50) Determination
In Table 5 below, MIC50 is defined as the lowest concentration of the compound that inhibited 50% growth of the wild type strain compared to untreated controls. Test compounds were two or three fold serially diluted in duplicates and spotted by mosquito HTS to 384-well clear plates, resulting in 10 dilutions of each compound. A volume of 50 μl of Mtb culture (final OD600 of 0.02) was added to each well, and the assay plates were incubated at 37° C. for 5 days. Growth of bacteria was measured by reading absorbance at 600 nm using a Spectramax M2 spectrophotometer. MIC50 values were determined by using Activity Base software.

SMILES	MIC50 [µM]
COc1cc(OC)c2cc(C(=O)N[C@@H]3CCCC[C@@H]3C)[nH]c2c1 [Example 4AO, 4,6-Dimethoxy-N-((1R,2S)-2-methylcyclohexyl)-1H-indole-2-carboxamide]	1.46 (≈ 0.462 µg/mL)
Cc1cc(Br)c2cc(C(=O)N[C@@H]3CCCC[C@@H]3C)[nH]c2c1 [Example 4AI, 4-Bromo-6-methyl-N-((1R,2S)-2-methylcyclohexyl)-1H-indole-2-carboxamide]	0.06 (≈ 0.021 µg/mL)
Cc1ccc2[nH]c(C(=O)NC3CCCCC3)c(C)c2c1 [Example 4BD, N-cyclohexyl-3,5-dimethyl-1H-indole-2-carboxamide]	3.51 (≈ 0.949 µg/mL)
CC1CCC(NC(=O)c2cc3c(Cl)ccc(Cl)c3[nH]2)CC1 (centres unmarked) [Example 4U, 4,7-Dichloro-N-(4-methylcyclohexyl)-1H-indole-2-carboxamide]	8.42 (≈ 2.74 µg/mL)
CC1CCC(NC(=O)c2cc3c(Cl)cc(Cl)cc3[nH]2)CC1 (centres unmarked) [Example 4G, 4,6-Dichloro-N-(4-methylcyclohexyl)-1H-indole-2-carboxamide]	0.057 (≈ 0.0185 µg/mL)
CC1(C)CCC(NC(=O)c2cc3c(Cl)cc(Cl)cc3[nH]2)CC1 [Example 1A, 4,6-dichloro-N-(4,4-dimethylcyclohexyl)-1H-indole-2-carboxamide]	0.015 (≈ 0.00509 µg/mL)
Cc1cc(C)c2cc(C(=O)NC3CCCCC3C#N)[nH]c2c1 (centres unmarked) [Example 4Q, N-(2-Cyanocyclohexyl)-4,6-dimethyl-1H-indole-2-carboxamide]	2.06 (≈ 0.608 µg/mL)
CC1CCC(NC(=O)c2cc3c(Cl)cccc3[nH]2)CC1 (centres unmarked) [Example 4Y, 4-Chloro-N-(4-methylcyclohexyl)-1H-indole-2-carboxamide]	0.22 (≈ 0.064 µg/mL)
Cc1cc(C)c2cc(C(=O)NCCC(C)C)[nH]c2c1 [Example 3D, N-Isopentyl-4,6-dimethyl-1H-indole-2-carboxamide]	3.26 (≈ 0.842 µg/mL)
Cc1cc(C)c2cc(C(=O)Nc3ccc(Cl)cc3)[nH]c2c1 [Example 3B, N-(4-Chlorophenyl)-4,6-dimethyl-1H-indole-2-carboxamide]	2.95 (≈ 0.881 µg/mL)
O=C(NC1CCC(C(F)(F)F)CC1)c1cc2c(Cl)cc(Cl)cc2[nH]1 (centres unmarked) [Example 5A, 4,6-Dichloro-N-(4-(trifluoromethyl)-cyclohexyl)-1H-indole-2-carboxamide]	0.305 (≈ 0.116 µg/mL)
O=C(NC1CCC(CF)CC1)c1cc2c(Cl)cc(Cl)cc2[nH]1 (centres unmarked) [Example 7A, 4,6-Dichloro-N-(4-(fluoromethyl)cyclohexyl)-1H-indole-2-carboxamide]	0.14 (≈ 0.0481 µg/mL)
O=C(NC1CCC(CO)CC1)c1cc2c(Cl)cc(Cl)cc2[nH]1 (centres unmarked) [Example 4AX, 4,6-Dichloro-N-(4-(hydroxymethyl)-cyclohexyl)-1H-indole-2-carboxamide]	13.5 (≈ 4.6 µg/mL)
COc1cc2cc(C(=O)N[C@@H]3CCCC[C@@H]3C)[nH]c2cc1OC [Example 4AQ, 5,6-Dimethoxy-N-((1R,2S)-2-methylcyclohexyl)-1H-indole-2-carboxamide]	19.5 (≈ 6.17 µg/mL)
Cc1cc(N2CCOCC2)cc2[nH]c(C(=O)N[C@@H]3CCCC[C@@H]3C)cc12 [Example 6B, 4-Methyl-N-((1R,2S)-2-methylcyclohexyl)-6-morpholino-1H-indole-2-carboxamide]	14.2 (≈ 5.07 µg/mL)
Cc1cc(C)c2cc(C(=O)N[C@@H]3CCC[C@H](C)[C@@H]3C)[nH]c2c1 [Example 4B, N-((1R,2S,3S)-2,3-Dimethylcyclohexyl)-4,6-dimethyl-1H-indole-2-carboxamide]	0.01 (≈ 0.00298 µg/mL)
C[C@H]1CCCC[C@H]1NC(=O)c1cc2c(F)cc(F)cc2[nH]1 [Example 4BA, 4,6-Difluoro-N-((1R,2S)-2-methylcyclohexyl)-1H-indole-2-carboxamide]	0.28 (≈ 0.0819 µg/mL)
C[C@H]1CCCC[C@H]1NC(=O)c1cc2c(Br)cccc2[nH]1 [Example 4AB, 4-Bromo-N-((1R,2S)-2-methylcyclohexyl)-1H-indole-2-carboxamide]	0.29 (≈ 0.0972 µg/mL)

SMILES	MIC50 [µM]
CC1CCC(NC(=O)c2cc3c(F)cccc3[nH]2)CC1 (centres unmarked) [Example 4BG, 4-Fluoro-N-(4-methylcyclohexyl)-1H-indole-2-carboxamide]	2.13 (≈ 0.584 µg/mL)
Cc1cc(Br)cc2[nH]c(C(=O)N[C@@H]3CCCC[C@@H]3C)cc12 [Example 4AH, 6-Bromo-4-methyl-N-((1R,2S)-2-methylcyclohexyl)-1H-indole-2-carboxamide]	0.01 (≈ 0.00349 µg/mL)
C[C@H]1CCCC[C@H]1NC(=O)c1cc2ccc(F)cc2[nH]1 [Example 4AZ, 6-Fluoro-N-((1R,2S)-2-methylcyclohexyl)-1H-indole-2-carboxamide]	1.35 (≈ 0.37 µg/mL)
N#Cc1ccc2cc(C(=O)NC3CCCCC3)[nH]c2c1 [Example 4AF, 6-Cyano-N-cyclohexyl-1H-indole-2-carboxamide]	2.27 (≈ 0.608 µg/mL)
C[C@H]1CC[C@H](NC(=O)c2cc3c(Cl)cc(Cl)cc3[nH]2)CC1 [Example 4S, 4,6-Dichloro-N-(trans-4-methylcyclohexyl)-1H-indole-2-carboxamide]	0.14 (≈ 0.0455 µg/mL)
CC1CCC(NC(=O)c2cc3ccc(Cl)cc3[nH]2)CC1 (centres unmarked) [Example 4V, 6-Chloro-N-(4-methylcyclohexyl)-1H-indole-2-carboxamide]	0.2 (≈ 0.0582 µg/mL)
C[C@H]1CCCC[C@H]1NC(=O)c1cc2c(Cl)cc(Cl)cc2[nH]1 [Example 4J, 4,6-Dichloro-N-((1R,2S)-2-methylcyclohexyl)-1H-indole-2-carboxamide]	0.035 (≈ 0.0114 µg/mL)
CC1CCC(NC(=O)c2cc3cccc(Cl)c3[nH]2)CC1 (centres unmarked) [Example 4X, 7-Chloro-N-(4-methylcyclohexyl)-1H-indole-2-carboxamide]	0.9 (≈ 0.262 µg/mL)
Cc1cc(C)c2cc(C(=O)N[C@H]3CCC[C@@H](C)[C@H]3C)[nH]c2c1 [Example 4I, N-((1S,2R,3R)-2,3-Dimethylcyclohexyl)-4,6-dimethyl-1H-indole-2-carboxamide]	0.02 (≈ 0.00597 µg/mL)
Cc1cc(OCCN2CCOCC2)cc2[nH]c(C(=O)NC3CCCCC3)cc12 [Example 9A, N-Cyclohexyl-4-methyl-6-(2-morpholinoethoxy)-1H-indole-2-carboxamide]	4.94 (≈ 1.9 µg/mL)
COc1ccc2[nH]c(C(=O)N[C@@H]3CCCC[C@@H]3C)cc2c1OC [Example 4AN, 4,5-Dimethoxy-N-((1R,2S)-2-methylcyclohexyl)-1H-indole-2-carboxamide]	1.02 (≈ 0.323 µg/mL)
C#CC1CCCCC1NC(=O)c1cc2c(Cl)cc(Cl)cc2[nH]1 (centres unmarked) [Example 4BE, 4,6-Dichloro-N-(2-ethynylcyclohexyl)-1H-indole-2-carboxamide]	0.22 (≈ 0.0738 µg/mL)
C[C@H]1CC[C@@H](NC(=O)c2cc3c(C#N)cc(C#N)cc3[nH]2)CC1 [Example 4AW, 4,6-Dicyano-N-(cis-4-methyl-cyclohexyl)-1H-indole-2-carboxamide]	> 20
CC1CCC(NC(=O)c2cc3c(Cl)cc(F)cc3[nH]2)CC1 (centres unmarked) [Example 4AT, 4-Chloro-6-fluoro-N-(4-methylcyclohexyl)-1H-indole-2-carboxamide]	0.165 (≈ 0.0509 µg/mL)
CC1CCC(NC(=O)c2cc3c(C(F)(F)F)cc(C(F)(F)F)cc3[nH]2)CC1 (centres unmarked) [Example 4H, N-(4-Methylcyclohexyl)-4,6-bis(trifluoromethyl)-1H-indole-2-carboxamide]	0.32 (≈ 0.126 µg/mL)
CC1CCC(NC(=O)c2cc3ccc(Cl)c(Cl)c3[nH]2)CC1 (centres unmarked) [Example 4W, 6,7-Dichloro-N-(4-methylcyclohexyl)-1H-indole-2-carboxamide]	0.72 (≈ 0.234 µg/mL)
Cc1cc(C#N)cc2[nH]c(C(=O)N[C@@H]3CCCC[C@@H]3C)cc12 [Example 4AJ, 6-Cyano-4-methyl-N-((1R,2S)-2-methylcyclohexyl)-1H-indole-2-carboxamide]	0.15 (≈ 0.0443 µg/mL)
